Where two headings read alike, the source gives them in different places.
Assays:
neutrophil influx = assay: Murine arachidonic acid-induced inflammation model: neutrophil influx in ear, myeloperoxidase activity (% Inh. MPO); type: in vivo; conditions: Mus musculus, female Balb/c mice, 30 mg/kg oral gavage, ear biopsy 3 h after topical arachidonic acid, number of determinations in parentheses
Summary of the method: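 Female Balb/c mice were dosed orally at 30 mg/kg (20% cyclodextran/H2O). Ear biopsies at 3 h; MPO activity by TMB, A405, acetone ear subtracted; inhibition versus vehicle-dosed mice.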

[1] = tested on: ex vivo stimulated LTB4 production; assay: Murine arachidonic acid-induced inflammation model: ex vivo stimulated LTB4 production (% Inh. LTB4); conditions: Mus musculus; female Balb/c mice, 30 mg/kg oral gavage; blood taken 3 h after arachidonic acid, ex vivo A23187 stimulation; number of determinations in parentheses
Summary of the method: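 Female Balb/c mice got 30 mg/kg orally in 20% cyclodextran/H2O. Heparinized blood in RPMI-1640 was stimulated with A23187 ([…]) for 30 min at 37 °C. LTB4 was measured by ELISA as % inhibition versus vehicle-dosed mice.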

[2] = biological target: T1, recombinant human LTA4 hydrolase (rhLTA4H) (Homo sapiens, UniProt P09960); assay: Recombinant human LTA4 hydrolase assay for LTA4 hydrolase inhibitor activity; type: biochemical
T1 construct: made in house; host or cells: Spodoptera frugiperda (Sf-9) cells, recombinant baculovirus (pFastBac1)
T1 sequence (P09960 1-611): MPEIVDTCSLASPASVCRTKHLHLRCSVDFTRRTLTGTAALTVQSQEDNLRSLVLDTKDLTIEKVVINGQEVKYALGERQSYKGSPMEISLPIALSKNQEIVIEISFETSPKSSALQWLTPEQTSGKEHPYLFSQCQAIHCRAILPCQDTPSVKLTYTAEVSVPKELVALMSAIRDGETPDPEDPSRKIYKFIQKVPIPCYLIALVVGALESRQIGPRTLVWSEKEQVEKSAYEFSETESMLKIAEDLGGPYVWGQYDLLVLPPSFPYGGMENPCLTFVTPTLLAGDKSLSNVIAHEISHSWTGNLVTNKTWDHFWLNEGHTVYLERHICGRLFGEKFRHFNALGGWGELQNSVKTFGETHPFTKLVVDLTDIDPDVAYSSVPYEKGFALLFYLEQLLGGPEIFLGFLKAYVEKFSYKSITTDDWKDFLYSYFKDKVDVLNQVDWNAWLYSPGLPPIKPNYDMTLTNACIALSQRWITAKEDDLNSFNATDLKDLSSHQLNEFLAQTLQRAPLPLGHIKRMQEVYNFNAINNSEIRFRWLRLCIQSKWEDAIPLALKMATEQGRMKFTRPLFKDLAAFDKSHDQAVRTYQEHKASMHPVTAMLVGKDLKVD
Summary of the method: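 Recombinant human LTA4H from baculovirus-infected Sf-9 cells (10 ng) pre-incubated 10 min at rt with compound (10% DMSO in dilutions), then reacted with free-acid LTA4 for 30 min at rt. LTB4 measured by ELISA; IC50 by nonlinear regression. Values are single determinations or averages.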

[3] = rhLTA4H, LTA4 substrate, LTB4 by immunoassay, single determination or average, read-out: IC50

O=C1CCCN1C1CCN(CCOc2ccc(Oc3nc4ncccc4s3)cc2)CC1 [Example 32, 1-(1-{2-[4-([1,3]Thiazolo[4,5-b]pyridin-2-yloxy)phenoxy]ethyl}piperidin-4-yl)pyrrolidin-2-one]
inhibition in vivo at 30 mg/kg (neutrophil influx): 76%
inhibition at 30 mg/kg [1]: 89%
IC50 [2, 3]: 8.9 nM

CC(=O)N1C[C@@H]2C[C@H]1CN2CCc1ccc(Oc2nc3ncccc3s2)cc1 [Example 75, 2-(4-{2-[(1S,4S)-5-Acetyl-2,5-diazabicyclo[2.2.1]hept-2-yl]ethyl}phenoxy)[1,3]thiazolo[4,5-b]pyridine]
inhibition in vivo at 30 mg/kg (neutrophil influx): 68.1%
inhibition at 30 mg/kg [1]: 89.5%
IC50 [2, 3]: 12 nM

NC(=O)N1C[C@@H]2C[C@H]1CN2Cc1ccc(Oc2nc3ncccc3s2)cc1 [Example 106, (1S,4S)-5-[4-([1,3]Thiazolo[4,5-b]pyridin-2-yloxy)benzyl]-2,5-diazabicyclo[2.2.1]heptane-2-carboxamide]
inhibition in vivo at 30 mg/kg (neutrophil influx): 95.2%
inhibition at 30 mg/kg [1]: 90.5%
IC50 [2, 3]: 3.5 nM

CC(=O)N1C[C@H]2C[C@@H]1CN2CCOc1ccc(Oc2nc3ncccc3s2)cc1 [Example 267, 2-(4-{2-[(1R,4R)-5-Acetyl-2,5-diazabicyclo[2.2.1]hept-2-yl]ethoxy}phenoxy)[1,3]thiazolo[4,5-b]pyridine]
inhibition in vivo at 30 mg/kg (neutrophil influx): 90.6%
inhibition at 30 mg/kg [1]: 83.4%
IC50 [2, 3]: 3 nM

CC(=O)N1C[C@H]2CC[C@@H](C1)N2CCc1ccc(Oc2nc3ncccc3s2)cc1 [Example 55, meso-2-(4-{2-[3-Acetyl-3,8-diazabicyclo[3.2.1]oct-8-yl]ethyl}phenoxy)[1,3]thiazolo[4,5-b]pyridine]
inhibition in vivo at 30 mg/kg (neutrophil influx): 73.5%
inhibition at 30 mg/kg [1]: 83.7%
IC50 [2, 3]: 4.8 nM

CC(=O)N[C@@H]1C[C@H]2CC[C@@H](C1)N2Cc1ccc(Oc2nc3ncccc3s2)cc1 [Example 109, meso-N-{(3-exo)-8-[4-([1,3]Thiazolo[4,5-b]pyridin-2-yloxy)benzyl]-8-azabicyclo[3.2.1]oct-3-yl}acetamide]
inhibition in vivo at 30 mg/kg (neutrophil influx): 71.5%
inhibition at 30 mg/kg [1]: 84.8%
IC50 [2]: 0.97 nM

NC(=O)N1C[C@@H]2C[C@H]1CN2CCc1ccc(Oc2nc3ncccc3s2)cc1 [Example 45, (1S,4S)-5-{2-[4-([1,3]Thiazolo[4,5-b]pyridin-2-yloxy)phenyl]ethyl}-2,5-diazabicyclo[2.2.1]heptane-2-carboxamide]
inhibition in vivo at 30 mg/kg (neutrophil influx): 71.1%
inhibition at 30 mg/kg [1]: 86.8%
IC50 [2, 3]: 3.9 nM

CC(=O)N1CC2CN(CCc3ccc(Oc4nc5ncccc5s4)cc3)CC2C1 (stereo not drawn) [Example 73, 2-{4-[2-(5-Acetylhexahydropyrrolo[3,4-c]pyrrol-2(1H)-yl)ethyl]phenoxy}[1,3]thiazolo[4,5-b]pyridine]
inhibition in vivo at 30 mg/kg (neutrophil influx): 79.4%
inhibition at 30 mg/kg [1]: 85.7%
IC50 [2, 3]: 12 nM

O=C1CCCN1C1CCN(Cc2ccc(Oc3nc4ncccc4s3)cc2)CC1 [Example 83, 1-{1-[4-([1,3]Thiazolo[4,5-b]pyridin-2-yloxy)benzyl]piperidin-4-yl}pyrrolidin-2-one]
inhibition in vivo at 30 mg/kg (neutrophil influx): 88.2%
inhibition at 30 mg/kg [1]: 81%
IC50 [2, 3]: 6.3 nM

CC(=O)N1C[C@@H]2C[C@H]1CN2CCOc1ccc(Oc2nc3ncccc3s2)cc1 [Example 14, 2-(4-{2-[(1S,4S)-5-Acetyl-2,5-diazabicyclo[2.2.1]hept-2-yl]ethoxy}phenoxy)[1,3]thiazolo[4,5-b]pyridine]
inhibition in vivo at 30 mg/kg (neutrophil influx): 72.3%
inhibition at 30 mg/kg [1]: 84%
IC50 [2, 3]: 7.5 ± 4.6 nM

NC(=O)N1C[C@H]2C[C@@H]1CN2Cc1ccc(Oc2nc3ncccc3s2)cc1 [Example 266, (1R,4R)-5-[4-([1,3]Thiazolo[4,5-b]pyridin-2-yloxy)benzyl]-2,5-diazabicyclo[2.2.1]heptane-2-carboxamide]
inhibition in vivo at 30 mg/kg (neutrophil influx): 85.8%
inhibition at 30 mg/kg [1]: 78.6%
IC50 [2, 3]: 2 nM

CC(=O)N[C@H]1C[C@H]2CC[C@@H](C1)N2Cc1ccc(Oc2nc3ncccc3s2)cc1 [Example 116, meso-N-{(3-endo)-8-[4-([1,3]Thiazolo[4,5-b]pyridin-2-yloxy)benzyl]-8-azabicyclo[3.2.1]oct-3-yl}acetamide]
inhibition in vivo at 30 mg/kg (neutrophil influx): 70%
inhibition at 30 mg/kg [1]: 81%
IC50 [2]: 1 ± 0.51 nM

NC(=O)C1CCN(CCOc2ccc(Oc3nc4ncccc4s3)cc2)CC1 [Example 31, 1-{2-[4-([1,3]Thiazolo[4,5-b]pyridin-2-yloxy)phenoxy]ethyl}piperidine-4-carboxamide]
inhibition in vivo at 30 mg/kg (neutrophil influx): 70.5%
inhibition at 30 mg/kg [1]: 79.8%
IC50 [2, 3]: 29 nM

CC(=O)N1C[C@@H]2C[C@H]1CN2Cc1ccc(Oc2nc3ncc(C)cc3s2)cc1 [Example 121, 2-(4-{[(1S,4S)-5-Acetyl-2,5-diazabicyclo[2.2.1]hept-2-yl]methyl}phenoxy)-6-methyl[1,3]thiazolo[4,5-b]pyridine]
inhibition in vivo at 30 mg/kg (neutrophil influx): 83%
inhibition at 30 mg/kg [1]: 83%
IC50 [2, 3]: 38 ± 17 nM

CC(=O)N1C[C@H]2C[C@@H]1CN2Cc1ccc(Oc2nc3ncccc3s2)cc1 [Example 265, 2-(4-{[(1R,4R)-5-Acetyl-2,5-diazabicyclo[2.2.1]hept-2-yl]methyl}phenoxy)[1,3]thiazolo[4,5-b]pyridine]
inhibition in vivo at 30 mg/kg (neutrophil influx): 90.8%
inhibition at 30 mg/kg [1]: 84.4%
IC50 [2, 3]: 11 nM

Reference: US20110190503A1, “Thiazolopyridin-2-yloxy-phenyl and thiazolopyrazin-2-yloxy-phenyl amines as modulators of leukotriene A4 hydrolase” (Janssen Pharmaceutical NV, priority 2008, published 2011)
